Data from patent US20100113570A1, “PREVENTION AND TREATMENT OF POST-OPERATIVE COGNITIVE DYSFUNCTION” (The General Hospital Corporation, priority 2008, published 2010).

Experiments:
H4-APP cells [1] = test: Caspase-3 activation by Western blot (ratio of caspase-3 fragment to FL-caspase-3) in H4-APP cells; format: cell-based, human
Description: (§1) Cell lines. We used naive H4 human neuroglioma cells stably transfected to express full-length APP (FL-APP; H4-APP cells) in the studies. The cells were cultured in DMEM (high glucose) containing 9% heat inactivated fetal calf serum, 100 U/ml penicillin, 100 μg/ml streptomycin, 2 mM L-glutamine, and 200 μg/ml G418.
(§2) Cell treatment. Twenty-one percent O2, 5% CO2, and 2% isoflurane were delivered from an anesthesia machine to a sealed plastic box in a 37° Celsius incubator containing six-well plates seeded with one million cells in 1.5 ml of cell culture media as described in our previous studies (Xie et al., 2006a,b, 2007). Date infrared gas analyzer (Puritan-Bennett, Tewksbury, Mass.) was used to continuously monitor the delivered CO2, O2, and isoflurane concentrations. We treated the cells with 2% isoflurane for 6 h, during which time the cells were incubated in serum-free media. In the interaction studies, the cells were treated with memantine (4 μM) 1 h before the treatment of 2% isoflurane. Low-calcium condition was created by using a calcium-free cell culture media (Invitrogen, Carlsbad, Calif.) and by adding EDTA (10 mM; Sigma-Aldrich, St. Louis, Mo.), a chelating compound (Rekasi et al., 2005), or BAPTA (10 μM; Sigma-Aldrich), an intracellular calcium chelator, to the media. […] These siRNAs and control siRNAs (3′[…]) were obtained from Dharmacon (Lafayette, Colo.). siRNAs were transfected into cells by using electroporation (Amaxa Biosystems, Gaithersburg, Md.) as described by Xie et al. (2005b). Briefly, we mixed 1 million cells, 100 μl of AMAXA electroporation transfection solution, and 10 μl of 20 μM siRNA together and then used the C-9 program in an AMAXA electroporation device for cell transfection. The transfected cells were then placed in one of the six-well plates containing 1.5 ml of cell culture media. The pretreated cells were then exposed to the isoflurane treatment.
Cell lysis and protein amount quantification. Cell pellets were detergent-extracted on ice using immunoprecipitation buffer (10 mM Tris-HCl, pH 7.4, 150 mM NaCl, 2 mM EDTA, 0.5% Nonidet P-40) plus protease inhibitors (1 μg/ml aprotinin, 1 μg/ml leupeptin, 1 μg/ml pepstatin A). The lysates were collected, centrifuged at 12,000 rpm for 10 min, and quantified for total proteins by a BCA protein assay kit (Pierce Technology Corporation, Iselin, N.J.).
Western blot analysis. The harvested cells and brain tissues were subjected to Western blots as described by Xie et al. (2005a). A caspase-3 antibody (1:1000 dilution; Cell Signaling Technology, Beverly, Mass.) was used to recognize caspase-3 fragment (17-20 kDa) resulting from cleavage at asparate position 175 and FL-caspase-3 (35-40 kDa). Caspase-3 cleavage (activation) is based on the ratio of caspase-3 fragment to FL caspase-3. Antibody anti-b-actin was used to visualize b-actin (42 kDa). Antibodies for IP3 receptor (1:1000; Millipore Bioscience Research Reagents, Temecula, Calif.), NR1 (1:1000; PhosphoSolutions, Aurora, Colo.), and SERCA1 (1:1000; Abcam, Cambridge, Mass.) were used to recognize IP3 receptor (250 kDa), NR1 (120 kDa), and SERCA1 (110 kDa). The quantitation of Western blots was performed as described by Xie et al. (2005a). Briefly, the intensity of signals was analyzed by using a Bio-Rad (Hercules, Calif.) image program (Quantity One) and an NIH Image version 1.37v. We quantified the Western blots using two steps.

H4-APP cells [2] = test: Cytosolic calcium measurement (Fura-2 ratio); format: cell-based, human
Description: Cytosolic calcium measurement. Cytosolic calcium levels were determined as described by Wei et al. (2008). Specifically, H4-APP cells were loaded with Fura-2 (Invitrogen), perfused with Tyrode buffer, and [Ca2+]i transients were recorded as changes in Fura-2 ratio (340/380 nm) using a spectrofluoroscope system (Ionoptix, Milton, Mass.).

MTT cell viability assay = format: cell-based, human; conditions: human, MTT
Description: as §1, §2

H4-APP cells [3] = test: Cell apoptosis assay (cell death detection ELISA); format: cell-based, human
Description: as §1, §2

caspase-3 = test: Caspase-3 activation in brain tissue of naive mice (Western blot); format: in vivo
Description: Mice treatment. The animal protocol was approved by the Massachusetts General Hospital Standing Committee on Animals Sixteen female C57BL/6 mice (5-6 months of age) (The Jackson Laboratory, Bar Harbor, Me.) were randomly assigned to an anesthesia or control group. […] This isoflurane treatment allows the mice to have sufficient exposure to isoflurane while avoiding excessive accumulation of CO2. The control mice (n=8) received 100% oxygen at an identical flow rate for 6 h and 20 min in an identical chamber. The mice breathed spontaneously, and anesthetic and oxygen concentrations were measured continuously (Datex, Puritan-Bennett; Ohmeda PPD, Madison, Wis.). Rectal temperature was measured intermittently, and the temperature of the anesthetizing chamber was controlled to maintain rectal temperature of the animals at 37±0.5° C. Mean arterial blood pressure was measured noninvasive using a tail cuff (CODA2 system; Kent Scientific Corporation, Torrington, Conn.) in the anesthetized mice. […] Mice were killed by decapitation at the end of the experiments, the brain was removed rapidly, and the prefrontal cortex was dissected out and frozen in liquid nitrogen for subsequent processing for the determination of caspase-3activation. […] Brain tissue lysis and protein amount quantification. […] The lysates were collected, centrifuged at 12,000 rpm for 10 min, and quantified for total proteins by a BCA protein assay kit (Pierce Technology Corporation). Western blot analysis. The harvested cells and brain tissues were subjected to Western blots as described by Xie et al. (2005a). […] Caspase-3 cleavage (activation) is based on the ratio of caspase-3 fragment to FL caspase-3. Antibody anti-b-actin was used to visualize b-actin (42 kDa). […] The quantitation of Western blots was performed as described by Xie et al. (2005a). Briefly, the intensity of signals was analyzed by using a Bio-Rad (Hercules, Calif.) image program (Quantity One) and an NIH Image version 1.37v. We quantified the Western blots using two steps. […] Data were expressed as mean±SD. […]

[4] = Blood pressure and blood gas of anesthetized mice; format: in vivo; conditions: 1.4% isoflurane for 2 h; data not shown
Description: Mice treatment. The animal protocol was approved by the Massachusetts General Hospital Standing Committee on Animals Sixteen female C57BL/6 mice (5-6 months of age) (The Jackson Laboratory, Bar Harbor, Me.) were randomly assigned to an anesthesia or control group. […] This isoflurane treatment allows the mice to have sufficient exposure to isoflurane while avoiding excessive accumulation of CO2. The control mice (n=8) received 100% oxygen at an identical flow rate for 6 h and 20 min in an identical chamber. The mice breathed spontaneously, and anesthetic and oxygen concentrations were measured continuously (Datex, Puritan-Bennett; Ohmeda PPD, Madison, Wis.). Rectal temperature was measured intermittently, and the temperature of the anesthetizing chamber was controlled to maintain rectal temperature of the animals at 37±0.5° C. Mean arterial blood pressure was measured noninvasive using a tail cuff (CODA2 system; Kent Scientific Corporation, Torrington, Conn.) in the anesthetized mice. […] Mice were killed by decapitation at the end of the experiments, the brain was removed rapidly, and the prefrontal cortex was dissected out and frozen in liquid nitrogen for subsequent processing for the determination of caspase-3activation.

H4-APP cells [5] = test: MTT cell viability assay; format: cell-based, human
Description: as §1, §2

[6] = isoflurane plus control siRNA, control = 100%
[7] = memantine 4 μM alone vs control conditions

O=C(O)CN(CC(=O)O)c1ccccc1OCCOc1ccccc1N(CC(=O)O)CC(=O)O [BAPTA, 1,2-bis (o-aminophenoxy)ethane-N,N,N′,N′-tetraacetic acid]
caspase-3 activation, BAPTA plus isoflurane (H4-APP cells [1]; BAPTA 10 μM plus 2% isoflurane for 6 h, control = 100%): 154% | caspase-3 activation, BAPTA alone (H4-APP cells [1]; BAPTA plus control condition vs DMSO plus control condition): does not induce caspase-3 activation

O=C(O)CN(CCN(CC(=O)O)CC(=O)O)CC(=O)O [EDTA, ethylenediaminetetraacetic acid]
reduction in caspase-3 activation compared with isoflurane plus normal calcium (H4-APP cells [1]; isoflurane plus low calcium and EDTA (10 mM), H4-APP cells): 68%

FC(F)OC(Cl)C(F)(F)F (centres unmarked) [isoflurane]
cytosolic calcium levels, isoflurane (H4-APP cells [2]; isoflurane 1 mM or 3.5%): can elevate cytosolic calcium levels | caspase-3 activation compared with control conditions (H4-APP cells [1]; 2% isoflurane for 6 h alone, H4-APP cells, control = 100%): 184% | caspase-3 activation, isoflurane plus DMSO (BAPTA experiment) (H4-APP cells [1]; 2% isoflurane for 6 h plus DMSO, control = 100%): 185% | caspase-3 activation, isoflurane plus control siRNA (NR1 experiment) (H4-APP cells [1]; 2% isoflurane for 6 h plus control siRNA, control = 100%): 168% | caspase-3 activation, isoflurane plus control siRNA (IP3 receptor experiment) (H4-APP cells [1]; [6]): 292% | caspase-3 activation, isoflurane plus control siRNA (SERCA1 experiment) (H4-APP cells [1]; [6]): 194% | viability at 6 h, 2 % (MTT cell viability assay; 2% isoflurane for 6 h, percent of control, read-out: cell viability, isoflurane alone): 74% | cytotoxicity at 6 h, 2 % (MTT cell viability assay; 2% isoflurane for 6 h vs control conditions, read-out: reduction in cell viability): 26% | cell apoptosis compared with control conditions (H4-APP cells [3]; 2% isoflurane for 6 h alone, control = 100%): 137% | caspase-3 activation in mouse brain compared with control condition (caspase-3; three sessions of 1.4% isoflurane for 2 h, prefrontal cortex, control = 100%): 177% | effect on blood pressure and venous blood gas [4]: did not significantly affect blood pressure and venous blood gas

CC12CC3CC(C)(C1)CC(N)(C3)C2 [memantine]
isoflurane-induced elevation in cytosolic calcium levels, memantine pretreatment (H4-APP cells [2]; pretreated with memantine 4 μM, then isoflurane 1 mM or 3.5%): isoflurane failed to increase cytosolic calcium levels | caspase-3 activation, memantine plus isoflurane (H4-APP cells [1]; memantine 4 μM 1 h before 2% isoflurane for 6 h, H4-APP cells, control = 100%): 101% | caspase-3 activation, memantine alone (H4-APP cells [1]; memantine 4 μM alone vs control conditions, H4-APP cells): did not induce caspase-3 activation | cell viability, memantine alone (H4-APP cells [5]; [7]): had no effects on either cell viability or apoptosis | cell viability, memantine plus isoflurane (H4-APP cells [5]; memantine 4 μM plus 2% isoflurane for 6 h, percent of control, MTT): 95% | cell apoptosis, memantine alone (H4-APP cells [3]; [7]): had no effects on either cell viability or apoptosis | cell apoptosis, memantine plus isoflurane (H4-APP cells [3]; memantine 4 μM plus 2% isoflurane for 6 h, control = 100%): 99% | caspase-3 activation in mouse brain, memantine plus isoflurane (caspase-3; memantine 20 mg/kg i.p. 1 h before three sessions of 1.4% isoflurane for 2 h, control = 100%): 97% | caspase-3 activation in mouse brain, memantine alone (caspase-3; memantine 20 mg/kg intraperitoneal alone vs control condition): did not induce caspase-3 activation
